# Experiments:
# Format in all cases: functional
# HeLa = test: In vitro cytotoxicity against the growth of HeLa-cell line; settings: Homo sapiens, read-out: LD50 (the source's name)
# HEp-2 = test: In vitro cytotoxicity against the growth of Hep-2 cell line; settings: Homo sapiens, read-out: LD50 (the source's name)
# [1] = In vitro cytotoxicity against the growth of Colon-205 cancer cell line; settings: Homo sapiens, Cancer cell lines; read-out: LD50 (the source's name)
# KB 3-1 = test: In vitro cytotoxicity against the growth of KB-cell line; settings: Homo sapiens, read-out: LD50 (the source's name)
Compound,CC50 (HeLa) [µg/mL],CC50 (HEp-2) [µg/mL],CC50 [1] [µg/mL],CC50 (KB 3-1) [µg/mL]
CCC(=O)/C=C/C=C\C(C)=O,> 10,> 10,> 10,> 10
CCCCCCC(=O)/C=C/C=C/C(=O)c1ccc(C(=O)OC)cc1,> 10,> 10,> 10,> 10
CCCCCCC(=O)/C=C\C=C\C(=O)c1ccc(C(=O)OC)cc1,> 10,> 10,0.8,> 10
CC(=O)/C=C\C=C\C(=O)c1ccccc1,> 10,> 10,1,0.8
CCC(=O)/C=C/C=C\C(=O)CC(C)C,> 10,> 10,> 10,> 10
CCC(=O)/C=C\C=C\C(=O)c1ccccc1,> 10,> 10,1,> 10

# — ChEMBL document CHEMBL1131687, “Dienyl diketones as anticancer agents: synthesis and biological evaluation of some aromatic derivatives” (1999)
